Holding throughout (test): NCI anticancer screen, dose series, 48 h
The subject of assay [1] is COLO 205 colon.
In assay [2] the test system is A549 NSCLC.
Assay [3] relates to DU-145 prostate.
The test system of assay [4] is OVCAR-5 ovarian.
The subject of assay [5] is NCI-H226 lung.
The test system of assay [6] is SK-MEL-2 melanoma.
In assay [7] the test system is SK-MEL-5 melanoma.
Assay [8] concerns UACC-62 melanoma.
Assay [9] relates to OVCAR-4 ovarian.
Assay [10] has as its system SNB-19 CNS.

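Each compound was tested at five concentrations against cells in 96-well plates for 48 hours. Here, GI50 denotes the concentration required for 50% inhibition of growth. Definition used: TGI = concentration required for complete inhibition of growth.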 Where a SMILES comes first, the peptide text is derived from it. [ ]: non-standard residue; d: D form. The star is where a group is joined. Bn2Val = CC(C)[C@@H](C(=O)*)N(Cc1ccccc1)Cc1ccccc1; NMeV = CN[C@H](C(=O)O)C(C)C; X29 = COc1ccc(CN*)c(OC)c1; dNMeA = CN[C@H](C)C(=O)O; Boc = CC(C)(C)OC(=O)*; OBn = c1ccc(CO*)cc1

For `CCOC(=O)C(NC(=O)CC)(Nc1ccc(S(=O)(=O)Nc2onc(C)c2C)cc1)C(F)(F)F` (configuration not stated), the TGI in assay [1], in assay [2], in assay [3], in assay [4], in [5] and in assay [6] was above 100 µM each time. Further, the TGI in assay [7], in assay [8], in assay [9] and in [10] was above 100 µM each time.

On to `CC(=O)OC1C2CCC3C(C)(O)C4CC(O)C(C)(C)C4(O)C(O)CC13CC2(C)O` (configuration not stated), for which the TGI in assay [1], in [2], in assay [3], in assay [4], in assay [5] and in assay [6] was above 100 µM throughout. Also, the TGI in assay [7], in assay [8], in [9] and in assay [10] was above 100 µM each time.

Regarding `Nc1cccc(S(=O)(=O)Nc2nnc(S(N)(=O)=O)s2)c1`, the TGI in [1], in [2], in assay [3], in assay [4], in [5] and in [6] was above 100 µM in each case. Besides, the TGI in assay [7], in [8], in assay [9] and in [10] was above 100 µM throughout.

With `O=[N+]([O-])c1ccc2oc(=Nc3ccccc3)c(Nc3ccccc3)nc2c1`, the TGI in [1], in assay [2], in [3], in assay [4], in assay [5] and in assay [6] was above 100 µM throughout. Also, the TGI in assay [7], in [8], in [9] and in [10] was above 100 µM each time.

Take `COc1ccc(CNC(=O)[C@@H]2CCCN2C(=O)[C@@H](C)N(C)C(=O)[C@H](C(C)C)N(C)C(=O)[C@@H](NC(=O)[C@H](C(C)C)N(Cc2ccccc2)Cc2ccccc2)C(C)C)c(OC)c1` (Bn2Val-V[NMeV][dNMeA]P-X29): the TGI in [1] was 5.09 µM; in assay [2], above 100 µM; in [3], 20.7 µM; in assay [4], 3.13 µM; in assay [5], 22.1 µM; in assay [6], 3.45 µM. Further, the TGI in assay [8] amounted to 15.4 µM; in assay [9], 14.4 µM; in assay [10], 22.8 µM.

In the case of `O=C(Sc1c(-c2ccccc2)c(=O)n(-c2ccccc2)c(=S)n1-c1ccccc1)c1cccs1`, the TGI in assay [1], in assay [2], in assay [3], in assay [4], in assay [5] and in [6] was above 100 µM each time. Also, the TGI was 95.1 µM in assay [7], above 100 µM in [9] and above 100 µM in assay [10].

With `CC1(C)C(CCO)CC1n1ccc(=O)[nH]c1=O` (configuration not stated), the TGI in [2], in assay [3], in assay [4], in assay [5], in [6] and in [7] was above 100 µM in each case. In addition, the TGI in [8], in assay [9] and in assay [10] was above 100 µM in each case.

Consider `COc1ccc(C(Cc2ccccc2)C2NC(=S)NC2=O)cc1` (configuration not stated), for which the TGI in [1], in assay [2], in [3], in assay [4], in assay [5] and in [6] was above 25 µM in each case. Further, the TGI in assay [7], in [9] and in [10] was above 25 µM each time.

Turning to `COC(=O)C1=C(O)C(C(=O)OC)[C@]2(O)[C@@H](C(=O)OC)[C@H]1C[C@@H](c1ccccc1)[C@@H]2C(=O)OC` (some centres not stated), the TGI in assay [3] was determined as 27 µM; in [4] it was 30.9 µM; in [5], 61.5 µM; in assay [6], 28.2 µM; in [8] it was 25.1 µM; in assay [10] it was 68.7 µM.

With `CC(C)CC(NC(=O)OC(C)(C)C)C(=O)NC(CC(=O)OCc1ccccc1)C(=O)OCc1ccccc1` (stereo not drawn) (Boc-Leu-Asp(OBn)-OBn; configuration not given here), the TGI in assay [1], in assay [2], in assay [3], in assay [4], in assay [5] and in assay [6] was above 100 µM in each case. Also, the TGI in [7] is 57.3 µM; in assay [8], 45.9 µM; in assay [10], 99.5 µM.

On to `N#C/C(=C\c1ccc([N+](=O)[O-])s1)c1nc2cc(Cl)ccc2s1`, for which the GI50 in [1] is 1.55 µM; in [2], 3.12 µM; in assay [3], 2.75 µM; in assay [5] it was 0.69 µM; in assay [6], 1.25 µM; in assay [7] it was 0.314 µM. In addition, in assay [10], the GI50 is 1.58 µM. Moreover, the TGI in [1] was 4.06 µM; in assay [2], above 100 µM; in assay [3] it was above 100 µM; in assay [5], 2.36 µM; in assay [6], 3.7 µM; in assay [7], 0.955 µM. The same compound gave a TGI in assay [10] above 100 µM.

In the case of `O=CC(O)C(O)C(O)C1CNC(=S)O1` (configuration not stated), the TGI in assay [1], in assay [2], in [3], in assay [4], in [5] and in assay [6] was above 100 µM in each case. The TGI in [7], in assay [8] and in assay [9] was above 100 µM in each case.

Turning to `CC(=O)NC1=C(NCCCl)C(=O)c2ccccc2C1=O`, the TGI is above 100 µM in assay [1]; above 100 µM in assay [2]; above 100 µM in assay [3]; above 100 µM in assay [4]; above 100 µM in assay [5]; 30.5 µM in [7]. The TGI in assay [8] was 42.9 µM; in assay [9] it was above 100 µM; in assay [10], above 100 µM.

For `Oc1ccccc1C1C=C(c2ccccc2)NC(N2CCCCC2)=C1c1nc2ccccc2[nH]1` (configuration not stated), the TGI in assay [1] worked out at 5.81 µM; in assay [2] it was 29.2 µM; in assay [3], 66.6 µM; in assay [4], 32 µM; in assay [5] it was 35.1 µM; in [7], 27 µM. Besides, the TGI in assay [8] is 29.8 µM; in assay [9] it was 30.7 µM; in [10], 28.7 µM.

For the origin of these results see PubChem BioAssay (NCI).
